SMILES strings stand for the structures. Some results are limits rather than exact numbers.

One data set has as its system TNF-α. Kind of data set: Pro-inflammatory cytokines: THP-1 cells, LPS, TNF-α. It is filed as cell-based. The settings on record: Homo sapiens, 24 hr, read-out: TNF-α (anti-inflammatory data, pro-inflammatory cytokine). The procedure:
(§1) Anti-inflammatory data for 3-hydroxypyridine-2-carbonyloxy-bis(3-chloro-4-methylphenyl)-borane
(§2) Pro-inflammatory cytokines: THP-1 cells, LPS@ […], 24 hr

For the next data set, the system named is IL-5. The data set can be described thus: TH2 cytokines: PBMC, PHA, IL-5. The settings on record: 24 h, read-out: IL-5 (anti-inflammatory data, TH2 cytokine). The data set is classed as cell-based. The procedure:
as §1
(§3) TH2 cytokines: PBMC, PHA@ […], 24 h

For the next data set, the system named is IL-3. The data set can be described thus: Regulatory cytokine: PBMC, PHA, IL-3. It is filed as cell-based. The settings on record: 24 h, read-out: IL-3 (anti-inflammatory data, regulatory cytokine). The procedure: as §1
Regulatory cytokine: PBMC, PHA@ […], 24 h

A further data set has as its system IL-2. Kind of data set: TH1 cytokines: PBMC, PHA, IL-2. It is filed as cell-based. The settings on record: 24 h, read-out: IL-2 (anti-inflammatory data, TH1 cytokine). The procedure: as §1
(§4) TH1 cytokines: PBMC, PHA@ […], 24 h

A further data set has as its system IL-6. Kind of data set: Pro-inflammatory cytokines: THP-1 cells, LPS, IL-6. It is filed as cell-based. Particulars: Homo sapiens, 24 hr, read-out: IL-6 (anti-inflammatory data, pro-inflammatory cytokine). The procedure: as §1, §2
In another data set the test system is IL-4. The data set can be described thus: TH2 cytokines: PBMC, PHA, IL-4. The data set is classed as cell-based. Particulars: 24 h, read-out: IL-4 (anti-inflammatory data, TH2 cytokine). The procedure:
as §1, §3

For the next data set, the system named is IFN-g. Kind of data set: TH1 cytokines: PBMC, PHA, IFN-g. It is filed as cell-based. Particulars: 24 h, read-out: IFN-g (anti-inflammatory data, TH1 cytokine). As to the method: as §1, §4
The test system of another data set is IL-10. Kind of data set: TH2 cytokines: PBMC, PHA, IL-10. The data set is classed as cell-based. The settings on record: 24 h, read-out: IL-10 (anti-inflammatory data, TH2 cytokine). As to the method: as §1, §3
In a further data set the test system is IL-8. Kind of data set: Pro-inflammatory cytokines: THP-1 cells, LPS, IL-8. The data set is classed as cell-based. The settings on record: Homo sapiens, 24 hr, read-out: IL-8 (anti-inflammatory data, pro-inflammatory cytokine). The procedure:
as §1, §2

Another data set has as its system IL-13. The data set can be described thus: TH2 cytokines: PBMC, PHA, IL-13. Particulars: 24 h, read-out: IL-13 (anti-inflammatory data, TH2 cytokine). The data set is classed as cell-based. As to the method:
as §1, §3

The subject of another data set is IL-1β. The data set can be described thus: Pro-inflammatory cytokines: THP-1 cells, LPS, IL-1β. The settings on record: Homo sapiens, 24 hr, read-out: IL-1β (anti-inflammatory data, pro-inflammatory cytokine). The data set is classed as cell-based. The procedure:
as §1, §2

Regarding `Cc1ccc(B(OC(=O)c2ncccc2O)c2ccc(C)c(Cl)c2)cc1Cl` [3-hydroxypyridine-2-carbonyloxy-bis(3-chloro-4-methylphenyl)-borane], the IC50 in the data set with TNF-α is 2.7 µM; with IL-5, 9.3 µM; in the data set with IL-3, over 10 µM; in the data set on IL-2, over 25 µM; in the data set on IL-6, 5.3 µM; in the data set on IL-4, over 25 µM. For the same molecule, the IC50 with IFN-g is over 25 µM; in the data set on IL-10 it was 14.5 µM; in the data set on IL-8 it was 9.6 µM; with IL-13, over 10 µM; with IL-1β, 1 µM. `OB1OCc2ccc(Oc3ccc(OC(F)(F)F)cc3)cc21` [C29, 6-(4-(trifluoromethoxy)phenoxy)benzo[c][1,2]oxaborol-1(3H)-ol] displayed a melting point of 97 to 101 °C. `Cc1cscc1B1OCc2cc(F)ccc21` [compound 14, 1,3-Dihydro-5-fluoro-1-(4-methylthiophen-3-yl)-2,1-benzoxaborole] came in with a melting point of 51 to 53 °C. Take `OB1OCc2ccc(-n3cc(Sc4ccccc4)c4ccccc43)cc21` [C66, 6-(3-(phenylthio)-1H-indol-1-yl)benzo[c][1,2]oxaborol-1(3H)-ol]: the melting point lay in the range of 159 to 163 °C. In turn, `N#Cc1ccc(Oc2cccc3c2B(O)OC3)cc1` [C74, 4-(1-hydroxy-1,3-dihydrobenzo[c][1,2]oxaborol-7-yloxy)benzonitrile] came in with a melting point of 148 to 153 °C.

As to `COc1ccc2c(c1)c(Sc1ccccc1)cn2-c1ccc2c(c1)B(O)OC2` [C72, 6-(5-methoxy-3-(phenylthio)-1H-indol-1-yl)benzo[c][1,2]oxaborol-1(3H)-ol], the melting point fell in the range of 135 to 141 °C.

As for `OB1OCc2ccc(F)cc21` [C13, 6-fluorobenzo[c][1,2]oxaborol-1(3H)-ol], the melting point was 110 to 117.5 °C.

Take `OCc1cc2c(cc1Br)COB2O` [C59]: the melting point was over 257 °C. Still for that read-out and setting: under `Cc1ccc(Sc2ccc3c(c2)B(O)OC3)cc1` [C95, 6-(p-tolylthio)benzo[c][1,2]oxaborol-1(3H)-ol] stands 139 to 144 °C. Still for that read-out and setting: with `Fc1ccc2c(c1)COB2c1cccc(Cl)c1` [9f, 1-(3-Chlorophenyl)-1,3-dihydro-5-fluoro-2,1-benzoxaborole] the figure was 112 to 114 °C; with `CCOC(=O)COc1ccc2c(c1)COB2O` [C41, Ethyl 2-(1-hydroxy-1,3-dihydrobenzo[c][1,2]oxaborol-5-yloxy)acetate], 134 to 137 °C.

With `Cc1ccc(B2OCc3cc(F)ccc32)cc1` [9j, 1,3-Dihydro-5-fluoro-1-(4-methylphenyl)-2,1-benzoxaborole], the melting point lay within 48 to 49 °C. On the same count and under the same terms, under `OB1OCc2ccc(N3CCN(c4ccccn4)CC3)cc21` [C48, 6-(4-(pyridin-2-yl)piperazin-1-yl)benzo[c][1,2]oxaborol-1(3H)-ol] stands 135 to 138 °C; under `O=C(O)COc1ccc2c(c1)COB2O` [C42, 2-(1-hydroxy-1,3-dihydrobenzo[c][1,2]oxaborol-5-yloxy)acetic acid], 163 to 166 °C. Still for that read-out and setting: under `Cc1cccc2c1B(O)OC2` [C65, 7-methylbenzo[c][1,2]oxaborol-1(3H)-ol] stands 107 to 111 °C; under `COc1ccc2c(c1)c(SCCC#N)cn2-c1ccc2c(c1)B(O)OC2` [C73, 3-(1-(1-hydroxy-1,3-dihydrobenzo[c][1,2]oxaborol-6-yl)-5-methoxy-1H-indol-3-ylthio)propanenitrile], 149 to 154 °C. In turn, `CSc1ccc(Sc2ccc3c(c2)B(O)OC3)cc1` [C94, 6-(4-(methylthio)phenylthio)benzo[c][1,2]oxaborol-1(3H)-ol] returned a melting point of 117 to 120 °C.

Consider `OCc1cccc2c1B(O)OC2` [C64, 7-(hydroxymethyl)benzo[c][1,2]oxaborol-1(3H)-ol], for which the melting point fell in the range of 241 to 250 °C.

For the origin of these results see patent US20070286822A1, “Compounds for the Treatment of Periodontal Disease” (ANACOR PHARMACEUTICALS INC., priority 2006, published 2007).
